Active and inactive are the calls of the source. Rule as the data show it, for most assays here: actives have a measured Kd and inactives only a lower limit.
What follows are compounds tested against Deoxycytidine kinase (Homo sapiens, UniProt P27707).
Also: in the data inactive means no Kd found up to 30 µM.

Sequence of Deoxycytidine kinase (P27707 whole entry): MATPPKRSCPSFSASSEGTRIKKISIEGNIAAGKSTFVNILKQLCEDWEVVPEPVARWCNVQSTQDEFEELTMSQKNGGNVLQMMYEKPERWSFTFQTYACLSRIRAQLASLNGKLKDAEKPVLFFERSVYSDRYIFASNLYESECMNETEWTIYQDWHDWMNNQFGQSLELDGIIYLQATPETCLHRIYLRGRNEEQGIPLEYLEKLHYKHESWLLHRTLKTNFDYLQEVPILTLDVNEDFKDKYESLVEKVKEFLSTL

| Compound | Kd |
| --- | --- |
| C[C@@H]1CN(Cc2ccc(F)cc2)[C@@H](C)CN1C(=O)c1cc2c(C(=O)C(=O)N(C)C)cn(C)c2cc1Cl [TALMAPIMOD] | > 30 µM (inactive) |
| O=c1sn(-c2cccc3ccccc23)c(=O)n1Cc1ccccc1 [TIDEGLUSIB] | > 30 µM (inactive) |
| COc1cc2nccc(Oc3ccc(NC(=O)Nc4cc(C)on4)c(Cl)c3)c2cc1OC [TIVOZANIB] | > 30 µM (inactive) |

Each compound was assayed against Mitogen-activated protein kinase kinase kinase 1 (Homo sapiens, UniProt Q13233).

| Compound | Kd |
| --- | --- |
| C[C@@H]1CN(Cc2ccc(F)cc2)[C@@H](C)CN1C(=O)c1cc2c(C(=O)C(=O)N(C)C)cn(C)c2cc1Cl [TALMAPIMOD] | > 30 µM (inactive) |
| O=c1sn(-c2cccc3ccccc23)c(=O)n1Cc1ccccc1 [TIDEGLUSIB] | > 30 µM (inactive) |
| COc1cc2nccc(Oc3ccc(NC(=O)Nc4cc(C)on4)c(Cl)c3)c2cc1OC [TIVOZANIB] | > 30 µM (inactive) |

These compounds were tested against Ribosomal protein S6 kinase alpha-4 (Homo sapiens, UniProt O75676).

| Compound | Kd |
| --- | --- |
| C[C@@H]1CN(Cc2ccc(F)cc2)[C@@H](C)CN1C(=O)c1cc2c(C(=O)C(=O)N(C)C)cn(C)c2cc1Cl [TALMAPIMOD] | > 30 µM (inactive) |
| O=c1sn(-c2cccc3ccccc23)c(=O)n1Cc1ccccc1 [TIDEGLUSIB] | > 30 µM (inactive) |
| COc1cc2nccc(Oc3ccc(NC(=O)Nc4cc(C)on4)c(Cl)c3)c2cc1OC [TIVOZANIB] | > 30 µM (inactive) |

The compounds below were run against Non-receptor tyrosine-protein kinase TYK2 (Homo sapiens, UniProt P29597).
Sequence of Non-receptor tyrosine-protein kinase TYK2 (P29597 whole entry): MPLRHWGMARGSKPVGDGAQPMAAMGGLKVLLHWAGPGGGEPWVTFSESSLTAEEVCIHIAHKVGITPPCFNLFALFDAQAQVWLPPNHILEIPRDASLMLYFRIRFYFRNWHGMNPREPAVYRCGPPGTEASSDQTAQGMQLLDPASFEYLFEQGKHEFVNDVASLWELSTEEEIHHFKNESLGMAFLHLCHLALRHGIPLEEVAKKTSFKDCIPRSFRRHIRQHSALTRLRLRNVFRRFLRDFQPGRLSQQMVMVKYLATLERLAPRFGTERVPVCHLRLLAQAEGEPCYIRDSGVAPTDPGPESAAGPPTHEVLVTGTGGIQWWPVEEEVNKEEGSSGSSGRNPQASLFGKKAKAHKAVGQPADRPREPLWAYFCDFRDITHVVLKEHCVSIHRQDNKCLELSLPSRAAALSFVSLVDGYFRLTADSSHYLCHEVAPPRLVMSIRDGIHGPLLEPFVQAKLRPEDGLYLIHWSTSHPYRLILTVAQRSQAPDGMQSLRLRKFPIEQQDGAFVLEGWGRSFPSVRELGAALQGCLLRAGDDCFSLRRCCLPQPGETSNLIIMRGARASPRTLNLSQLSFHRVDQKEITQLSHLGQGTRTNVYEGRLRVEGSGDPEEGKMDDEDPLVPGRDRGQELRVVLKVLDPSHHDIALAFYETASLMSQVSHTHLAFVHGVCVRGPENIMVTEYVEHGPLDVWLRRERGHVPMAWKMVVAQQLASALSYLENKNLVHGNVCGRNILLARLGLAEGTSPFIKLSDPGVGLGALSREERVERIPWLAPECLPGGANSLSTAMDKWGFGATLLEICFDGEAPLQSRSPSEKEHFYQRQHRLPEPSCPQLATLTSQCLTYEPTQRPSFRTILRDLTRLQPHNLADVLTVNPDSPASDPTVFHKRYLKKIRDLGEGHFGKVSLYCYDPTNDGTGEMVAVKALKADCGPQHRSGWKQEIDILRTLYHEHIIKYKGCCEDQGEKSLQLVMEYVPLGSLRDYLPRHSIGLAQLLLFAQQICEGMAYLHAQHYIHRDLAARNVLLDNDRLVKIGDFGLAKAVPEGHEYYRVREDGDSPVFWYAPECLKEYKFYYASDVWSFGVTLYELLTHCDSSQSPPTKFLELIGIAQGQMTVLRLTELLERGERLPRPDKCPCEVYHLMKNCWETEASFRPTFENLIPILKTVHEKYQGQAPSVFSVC

| Compound | Kd |
| --- | --- |
| C[C@@H]1CN(Cc2ccc(F)cc2)[C@@H](C)CN1C(=O)c1cc2c(C(=O)C(=O)N(C)C)cn(C)c2cc1Cl [TALMAPIMOD] | > 30 µM (inactive) |
| O=c1sn(-c2cccc3ccccc23)c(=O)n1Cc1ccccc1 [TIDEGLUSIB] | > 30 µM (inactive) |
| COc1cc2nccc(Oc3ccc(NC(=O)Nc4cc(C)on4)c(Cl)c3)c2cc1OC [TIVOZANIB] | > 30 µM (inactive) |

The compounds below were run against Atypical kinase COQ8A, mitochondrial (Homo sapiens, UniProt Q8NI60).
Sequence of Atypical kinase COQ8A, mitochondrial (Q8NI60 whole entry): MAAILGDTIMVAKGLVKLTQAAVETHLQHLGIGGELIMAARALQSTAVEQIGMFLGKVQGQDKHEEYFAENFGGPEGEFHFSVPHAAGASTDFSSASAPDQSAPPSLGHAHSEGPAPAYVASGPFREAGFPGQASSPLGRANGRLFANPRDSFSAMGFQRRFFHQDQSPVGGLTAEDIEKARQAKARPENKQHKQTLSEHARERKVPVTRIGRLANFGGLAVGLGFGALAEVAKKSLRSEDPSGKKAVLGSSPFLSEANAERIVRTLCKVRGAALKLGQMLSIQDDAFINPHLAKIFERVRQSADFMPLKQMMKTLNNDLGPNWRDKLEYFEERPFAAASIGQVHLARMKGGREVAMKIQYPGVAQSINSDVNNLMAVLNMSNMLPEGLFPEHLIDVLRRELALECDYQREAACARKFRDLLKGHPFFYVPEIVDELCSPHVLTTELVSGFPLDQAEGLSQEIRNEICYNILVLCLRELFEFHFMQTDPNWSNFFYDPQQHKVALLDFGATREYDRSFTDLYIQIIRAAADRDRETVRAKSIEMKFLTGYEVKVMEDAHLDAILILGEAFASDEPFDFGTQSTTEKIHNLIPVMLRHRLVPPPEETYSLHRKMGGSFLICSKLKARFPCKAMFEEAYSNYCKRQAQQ

| Compound | Kd |
| --- | --- |
| C[C@@H]1CN(Cc2ccc(F)cc2)[C@@H](C)CN1C(=O)c1cc2c(C(=O)C(=O)N(C)C)cn(C)c2cc1Cl [TALMAPIMOD] | > 30 µM (inactive) |
| O=c1sn(-c2cccc3ccccc23)c(=O)n1Cc1ccccc1 [TIDEGLUSIB] | > 30 µM (inactive) |
| COc1cc2nccc(Oc3ccc(NC(=O)Nc4cc(C)on4)c(Cl)c3)c2cc1OC [TIVOZANIB] | > 30 µM (inactive) |

The compounds below were run against T1, Mitogen-activated protein kinase kinase kinase 2 (Homo sapiens, UniProt Q9Y2U5).
T1 sequence (Q9Y2U5 whole entry): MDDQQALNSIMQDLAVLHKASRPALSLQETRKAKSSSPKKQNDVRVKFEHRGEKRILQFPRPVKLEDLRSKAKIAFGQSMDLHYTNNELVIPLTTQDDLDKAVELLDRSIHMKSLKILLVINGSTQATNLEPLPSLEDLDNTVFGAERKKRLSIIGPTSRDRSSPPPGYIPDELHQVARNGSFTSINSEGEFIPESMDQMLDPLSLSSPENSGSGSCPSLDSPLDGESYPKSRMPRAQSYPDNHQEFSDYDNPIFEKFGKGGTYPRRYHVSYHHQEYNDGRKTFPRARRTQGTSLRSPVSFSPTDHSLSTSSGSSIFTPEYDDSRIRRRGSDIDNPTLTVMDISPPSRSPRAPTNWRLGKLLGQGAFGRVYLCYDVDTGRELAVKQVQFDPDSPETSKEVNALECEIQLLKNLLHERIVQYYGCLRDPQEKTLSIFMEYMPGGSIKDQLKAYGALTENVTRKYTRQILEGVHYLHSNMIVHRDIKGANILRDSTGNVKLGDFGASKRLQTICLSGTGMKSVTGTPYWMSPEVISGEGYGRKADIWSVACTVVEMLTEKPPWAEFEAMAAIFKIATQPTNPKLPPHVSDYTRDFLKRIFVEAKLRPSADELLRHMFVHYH

| Compound | Kd |
| --- | --- |
| C[C@@H]1CN(Cc2ccc(F)cc2)[C@@H](C)CN1C(=O)c1cc2c(C(=O)C(=O)N(C)C)cn(C)c2cc1Cl [TALMAPIMOD] | > 30 µM (inactive) |
| O=c1sn(-c2cccc3ccccc23)c(=O)n1Cc1ccccc1 [TIDEGLUSIB] | > 30 µM (inactive) |
| COc1cc2nccc(Oc3ccc(NC(=O)Nc4cc(C)on4)c(Cl)c3)c2cc1OC [TIVOZANIB] | > 30 µM (inactive) |

These compounds were tested against MAP kinase-activated protein kinase 2 (Homo sapiens, UniProt P49137).
Sequence of MAP kinase-activated protein kinase 2 (P49137 whole entry): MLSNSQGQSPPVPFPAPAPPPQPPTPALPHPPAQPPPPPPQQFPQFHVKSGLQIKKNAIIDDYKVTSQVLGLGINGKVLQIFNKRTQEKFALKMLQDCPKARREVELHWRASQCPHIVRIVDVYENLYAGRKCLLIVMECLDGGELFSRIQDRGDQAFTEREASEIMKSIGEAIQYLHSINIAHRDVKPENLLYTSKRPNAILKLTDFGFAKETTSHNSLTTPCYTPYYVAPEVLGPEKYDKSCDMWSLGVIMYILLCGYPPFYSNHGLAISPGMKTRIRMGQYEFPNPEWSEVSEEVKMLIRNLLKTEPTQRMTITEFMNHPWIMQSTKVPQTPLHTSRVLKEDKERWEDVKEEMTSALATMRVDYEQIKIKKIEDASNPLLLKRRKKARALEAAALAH

| Compound | Kd |
| --- | --- |
| C[C@@H]1CN(Cc2ccc(F)cc2)[C@@H](C)CN1C(=O)c1cc2c(C(=O)C(=O)N(C)C)cn(C)c2cc1Cl [TALMAPIMOD] | 0.019 µM |
| O=c1sn(-c2cccc3ccccc23)c(=O)n1Cc1ccccc1 [TIDEGLUSIB] | > 30 µM (inactive) |
| COc1cc2nccc(Oc3ccc(NC(=O)Nc4cc(C)on4)c(Cl)c3)c2cc1OC [TIVOZANIB] | > 30 µM (inactive) |

What follows are compounds tested against T2, ATP-dependent 6-phosphofructokinase, platelet type (Homo sapiens, UniProt Q01813).
T2 sequence (Q01813 whole entry): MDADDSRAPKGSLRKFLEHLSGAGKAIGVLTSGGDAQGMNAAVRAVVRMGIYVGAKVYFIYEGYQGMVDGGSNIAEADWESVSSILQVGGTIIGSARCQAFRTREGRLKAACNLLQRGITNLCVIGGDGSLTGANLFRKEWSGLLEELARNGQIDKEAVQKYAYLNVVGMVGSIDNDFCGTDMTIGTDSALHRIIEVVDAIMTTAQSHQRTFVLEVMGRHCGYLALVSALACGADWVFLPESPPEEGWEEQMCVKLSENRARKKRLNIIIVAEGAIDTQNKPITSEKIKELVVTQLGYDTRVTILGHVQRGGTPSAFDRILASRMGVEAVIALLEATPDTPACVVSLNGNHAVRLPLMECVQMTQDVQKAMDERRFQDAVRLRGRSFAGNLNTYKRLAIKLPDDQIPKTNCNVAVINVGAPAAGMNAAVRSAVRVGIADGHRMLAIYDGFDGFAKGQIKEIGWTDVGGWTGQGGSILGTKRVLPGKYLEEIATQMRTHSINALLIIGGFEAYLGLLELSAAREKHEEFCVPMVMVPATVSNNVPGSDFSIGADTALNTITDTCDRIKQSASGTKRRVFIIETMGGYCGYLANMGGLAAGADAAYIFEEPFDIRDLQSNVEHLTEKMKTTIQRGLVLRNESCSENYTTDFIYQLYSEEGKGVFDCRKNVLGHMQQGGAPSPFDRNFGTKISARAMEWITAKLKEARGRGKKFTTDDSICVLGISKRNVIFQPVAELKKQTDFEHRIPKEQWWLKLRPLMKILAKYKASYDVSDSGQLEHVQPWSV

| Compound | Kd |
| --- | --- |
| C[C@@H]1CN(Cc2ccc(F)cc2)[C@@H](C)CN1C(=O)c1cc2c(C(=O)C(=O)N(C)C)cn(C)c2cc1Cl [TALMAPIMOD] | > 30 µM (inactive) |
| O=c1sn(-c2cccc3ccccc23)c(=O)n1Cc1ccccc1 [TIDEGLUSIB] | > 30 µM (inactive) |
| COc1cc2nccc(Oc3ccc(NC(=O)Nc4cc(C)on4)c(Cl)c3)c2cc1OC [TIVOZANIB] | > 30 µM (inactive) |

What follows are compounds tested against Tyrosine-protein kinase Lyn (Homo sapiens, UniProt P07948).
Sequence of Tyrosine-protein kinase Lyn (P07948 whole entry): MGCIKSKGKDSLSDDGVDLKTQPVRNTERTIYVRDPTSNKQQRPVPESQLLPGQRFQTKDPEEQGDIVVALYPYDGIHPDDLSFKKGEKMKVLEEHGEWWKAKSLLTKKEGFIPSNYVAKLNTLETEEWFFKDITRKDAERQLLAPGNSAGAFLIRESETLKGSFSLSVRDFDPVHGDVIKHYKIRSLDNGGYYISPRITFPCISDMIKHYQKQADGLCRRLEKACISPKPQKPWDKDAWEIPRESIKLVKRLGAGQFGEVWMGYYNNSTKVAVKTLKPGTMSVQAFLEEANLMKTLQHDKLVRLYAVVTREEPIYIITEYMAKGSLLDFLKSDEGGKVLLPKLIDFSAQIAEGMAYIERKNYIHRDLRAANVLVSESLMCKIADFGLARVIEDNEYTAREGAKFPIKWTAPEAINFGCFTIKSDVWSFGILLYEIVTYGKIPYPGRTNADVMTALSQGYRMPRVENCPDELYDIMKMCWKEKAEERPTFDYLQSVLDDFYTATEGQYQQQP

| Compound | Kd |
| --- | --- |
| C[C@@H]1CN(Cc2ccc(F)cc2)[C@@H](C)CN1C(=O)c1cc2c(C(=O)C(=O)N(C)C)cn(C)c2cc1Cl [TALMAPIMOD] | > 30 µM (inactive) |
| O=c1sn(-c2cccc3ccccc23)c(=O)n1Cc1ccccc1 [TIDEGLUSIB] | > 30 µM (inactive) |
| COc1cc2nccc(Oc3ccc(NC(=O)Nc4cc(C)on4)c(Cl)c3)c2cc1OC [TIVOZANIB] | 2.02 µM (active) |

What follows are compounds tested against STE20-like serine/threonine-protein kinase (Homo sapiens, UniProt Q9H2G2).
Sequence of STE20-like serine/threonine-protein kinase (Q9H2G2 whole entry): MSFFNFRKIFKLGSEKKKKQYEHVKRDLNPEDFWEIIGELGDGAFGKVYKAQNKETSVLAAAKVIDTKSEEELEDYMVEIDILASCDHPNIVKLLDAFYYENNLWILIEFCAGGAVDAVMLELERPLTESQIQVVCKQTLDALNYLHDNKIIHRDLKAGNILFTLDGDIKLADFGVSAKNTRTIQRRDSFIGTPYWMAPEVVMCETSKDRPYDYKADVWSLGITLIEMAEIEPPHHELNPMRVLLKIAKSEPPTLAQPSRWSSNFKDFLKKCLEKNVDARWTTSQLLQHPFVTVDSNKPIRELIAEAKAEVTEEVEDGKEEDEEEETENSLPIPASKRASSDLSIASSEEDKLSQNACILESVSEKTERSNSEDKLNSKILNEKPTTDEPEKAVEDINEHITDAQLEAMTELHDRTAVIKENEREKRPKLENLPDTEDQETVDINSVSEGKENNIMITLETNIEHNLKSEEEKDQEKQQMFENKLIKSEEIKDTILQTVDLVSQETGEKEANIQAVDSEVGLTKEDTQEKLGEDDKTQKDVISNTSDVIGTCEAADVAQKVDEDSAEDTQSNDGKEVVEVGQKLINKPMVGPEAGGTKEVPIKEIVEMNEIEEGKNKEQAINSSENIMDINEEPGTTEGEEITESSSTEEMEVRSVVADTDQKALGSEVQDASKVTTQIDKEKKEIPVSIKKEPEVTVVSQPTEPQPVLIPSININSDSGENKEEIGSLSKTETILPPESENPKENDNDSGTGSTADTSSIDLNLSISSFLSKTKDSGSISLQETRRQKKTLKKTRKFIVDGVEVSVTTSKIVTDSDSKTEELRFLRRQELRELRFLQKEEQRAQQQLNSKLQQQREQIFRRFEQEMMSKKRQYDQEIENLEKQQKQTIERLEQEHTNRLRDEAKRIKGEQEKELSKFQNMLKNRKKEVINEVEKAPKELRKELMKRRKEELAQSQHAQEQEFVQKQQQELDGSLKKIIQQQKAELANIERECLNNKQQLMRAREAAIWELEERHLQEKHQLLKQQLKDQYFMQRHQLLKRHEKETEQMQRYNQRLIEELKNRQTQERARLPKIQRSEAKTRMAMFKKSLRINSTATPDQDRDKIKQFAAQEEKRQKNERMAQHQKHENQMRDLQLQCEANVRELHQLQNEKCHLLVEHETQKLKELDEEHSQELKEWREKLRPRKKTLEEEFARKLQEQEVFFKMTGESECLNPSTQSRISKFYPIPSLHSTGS

| Compound | Kd |
| --- | --- |
| C[C@@H]1CN(Cc2ccc(F)cc2)[C@@H](C)CN1C(=O)c1cc2c(C(=O)C(=O)N(C)C)cn(C)c2cc1Cl [TALMAPIMOD] | > 30 µM (inactive) |
| O=c1sn(-c2cccc3ccccc23)c(=O)n1Cc1ccccc1 [TIDEGLUSIB] | > 30 µM (inactive) |
| COc1cc2nccc(Oc3ccc(NC(=O)Nc4cc(C)on4)c(Cl)c3)c2cc1OC [TIVOZANIB] | > 30 µM (inactive) |

What follows are compounds tested against Tyrosine-protein kinase Fer (Homo sapiens, UniProt P16591).

| Compound | Kd |
| --- | --- |
| C[C@@H]1CN(Cc2ccc(F)cc2)[C@@H](C)CN1C(=O)c1cc2c(C(=O)C(=O)N(C)C)cn(C)c2cc1Cl [TALMAPIMOD] | > 30 µM (inactive) |
| O=c1sn(-c2cccc3ccccc23)c(=O)n1Cc1ccccc1 [TIDEGLUSIB] | > 30 µM (inactive) |
| COc1cc2nccc(Oc3ccc(NC(=O)Nc4cc(C)on4)c(Cl)c3)c2cc1OC [TIVOZANIB] | > 30 µM (inactive) |

The compounds below were run against T3, Serine/threonine-protein kinase TAO1 (Homo sapiens, UniProt Q7L7X3).
T3 sequence (Q7L7X3 whole entry): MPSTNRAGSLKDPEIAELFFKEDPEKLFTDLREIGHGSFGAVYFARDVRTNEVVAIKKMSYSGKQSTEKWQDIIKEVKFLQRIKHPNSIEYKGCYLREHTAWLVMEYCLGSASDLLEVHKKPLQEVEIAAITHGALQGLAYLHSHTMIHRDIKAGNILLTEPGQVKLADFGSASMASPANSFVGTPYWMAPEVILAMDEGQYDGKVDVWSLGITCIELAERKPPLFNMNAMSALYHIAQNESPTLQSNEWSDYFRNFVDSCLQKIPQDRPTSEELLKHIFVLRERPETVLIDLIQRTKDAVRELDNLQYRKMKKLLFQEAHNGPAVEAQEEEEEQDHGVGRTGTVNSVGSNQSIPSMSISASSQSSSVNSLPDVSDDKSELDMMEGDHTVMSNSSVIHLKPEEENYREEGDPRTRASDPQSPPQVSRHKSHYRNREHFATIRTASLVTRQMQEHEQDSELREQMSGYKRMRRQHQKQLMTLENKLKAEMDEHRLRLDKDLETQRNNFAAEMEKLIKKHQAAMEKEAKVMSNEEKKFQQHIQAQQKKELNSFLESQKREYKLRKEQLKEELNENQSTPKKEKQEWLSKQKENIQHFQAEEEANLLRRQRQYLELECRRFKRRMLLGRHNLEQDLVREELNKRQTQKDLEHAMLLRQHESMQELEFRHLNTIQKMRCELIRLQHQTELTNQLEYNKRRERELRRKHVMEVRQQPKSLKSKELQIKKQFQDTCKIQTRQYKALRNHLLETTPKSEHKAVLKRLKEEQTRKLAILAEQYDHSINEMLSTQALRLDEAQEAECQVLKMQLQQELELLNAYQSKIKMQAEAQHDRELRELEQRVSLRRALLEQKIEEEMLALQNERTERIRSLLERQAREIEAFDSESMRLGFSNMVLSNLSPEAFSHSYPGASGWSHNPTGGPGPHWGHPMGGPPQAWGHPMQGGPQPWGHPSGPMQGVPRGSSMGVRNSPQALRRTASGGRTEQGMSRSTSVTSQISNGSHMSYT

| Compound | Kd |
| --- | --- |
| C[C@@H]1CN(Cc2ccc(F)cc2)[C@@H](C)CN1C(=O)c1cc2c(C(=O)C(=O)N(C)C)cn(C)c2cc1Cl [TALMAPIMOD] | > 30 µM (inactive) |
| O=c1sn(-c2cccc3ccccc23)c(=O)n1Cc1ccccc1 [TIDEGLUSIB] | > 30 µM (inactive) |
| COc1cc2nccc(Oc3ccc(NC(=O)Nc4cc(C)on4)c(Cl)c3)c2cc1OC [TIVOZANIB] | > 30 µM (inactive) |

Each compound was assayed against ATP-dependent RNA helicase DDX3X (Homo sapiens, UniProt O00571).
Sequence of ATP-dependent RNA helicase DDX3X (O00571 whole entry): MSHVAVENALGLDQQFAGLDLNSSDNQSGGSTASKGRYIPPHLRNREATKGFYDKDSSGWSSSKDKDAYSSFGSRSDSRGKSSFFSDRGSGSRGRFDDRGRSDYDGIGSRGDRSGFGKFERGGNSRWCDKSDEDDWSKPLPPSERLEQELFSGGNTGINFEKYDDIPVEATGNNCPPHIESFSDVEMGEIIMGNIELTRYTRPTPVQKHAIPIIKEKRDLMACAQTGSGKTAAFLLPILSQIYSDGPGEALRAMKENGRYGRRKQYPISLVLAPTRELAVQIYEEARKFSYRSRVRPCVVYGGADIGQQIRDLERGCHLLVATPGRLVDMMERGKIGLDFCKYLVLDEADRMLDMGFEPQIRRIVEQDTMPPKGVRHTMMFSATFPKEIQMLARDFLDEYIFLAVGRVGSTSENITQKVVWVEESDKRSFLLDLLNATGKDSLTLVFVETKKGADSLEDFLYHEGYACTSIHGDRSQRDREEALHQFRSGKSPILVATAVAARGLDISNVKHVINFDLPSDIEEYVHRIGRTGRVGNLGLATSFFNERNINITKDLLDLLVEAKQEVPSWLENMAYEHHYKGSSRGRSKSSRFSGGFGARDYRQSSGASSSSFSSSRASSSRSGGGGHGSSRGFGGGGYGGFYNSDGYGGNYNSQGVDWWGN

| Compound | Kd |
| --- | --- |
| C[C@@H]1CN(Cc2ccc(F)cc2)[C@@H](C)CN1C(=O)c1cc2c(C(=O)C(=O)N(C)C)cn(C)c2cc1Cl [TALMAPIMOD] | > 30 µM (inactive) |
| O=c1sn(-c2cccc3ccccc23)c(=O)n1Cc1ccccc1 [TIDEGLUSIB] | > 30 µM (inactive) |
| COc1cc2nccc(Oc3ccc(NC(=O)Nc4cc(C)on4)c(Cl)c3)c2cc1OC [TIVOZANIB] | > 30 µM (inactive) |
